Paper doi:10.1101/2020.02.14.948786v2 (bioRxiv, 2020)

System: Ca^2+ spiking in Neurospora crassa conidia expressing GCaMP6s
Experiment: Ca^2+ spiking in single conidia expressing GCaMP6s
Format: cell-based
Conditions: conidia pre-treated with 5 mM BAPTA before ddH2O or PAF26 treatment

## O=C(O)CN(CC(=O)O)c1ccccc1OCCOc1ccccc1N(CC(=O)O)CC(=O)O [BAPTA]
  frequency of Ca^2+ spiking after chelation of external Ca^2+: 0
